Measurements reported in the kinase profiling compilation of Christmann-Franck et al. (2016).

Experiments:
Experiment in all cases: radiometric filter-binding kinase assay, Kinase HotSpot
Conditions in all cases: compound 0.5 µM; ATP 10 µM
SGK3 (human) = SGK3 (human) (UniProt Q96BR1)
ERBB2 (human) = ERBB2 (human) (UniProt P04626)
CLK2 (human) = CLK2 (human) (UniProt P49760)
GRK6 (human) = GRK6 (human) (UniProt P43250)
NEK11 (human) = NEK11 (human) (UniProt Q8NG66)
CSNK2A2 (human) = CSNK2A2 (human) (UniProt P19784)
NEK1 (human) = NEK1 (human) (UniProt Q96PY6)
CSK (human) = CSK (human) (UniProt P41240)
PRKCH (human) = PRKCH (human) (UniProt P24723)
DAPK3 (human) = DAPK3 (human) (UniProt O43293)
Chain of DAPK3 (human) (O43293 whole entry, looked up): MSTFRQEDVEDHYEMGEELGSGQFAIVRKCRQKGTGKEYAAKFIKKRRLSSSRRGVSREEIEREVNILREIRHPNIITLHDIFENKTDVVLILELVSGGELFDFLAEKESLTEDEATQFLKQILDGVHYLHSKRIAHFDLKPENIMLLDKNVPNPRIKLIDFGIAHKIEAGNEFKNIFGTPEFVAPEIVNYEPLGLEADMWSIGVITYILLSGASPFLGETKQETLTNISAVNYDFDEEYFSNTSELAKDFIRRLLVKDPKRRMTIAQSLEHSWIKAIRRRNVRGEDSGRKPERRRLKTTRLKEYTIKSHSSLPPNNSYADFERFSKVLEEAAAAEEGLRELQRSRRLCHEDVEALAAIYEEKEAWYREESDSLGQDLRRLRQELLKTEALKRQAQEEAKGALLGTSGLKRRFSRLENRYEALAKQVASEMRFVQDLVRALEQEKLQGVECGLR

BRSK2 (human) = BRSK2 (human) (UniProt Q8IWQ3)
GSK3B (human) = GSK3B (human) (UniProt P49841)
MERTK (human) = MERTK (human) (UniProt Q12866)
HIPK4 (human) = HIPK4 (human) (UniProt Q8NE63)
STK24 (human) = STK24 (human) (UniProt Q9Y6E0)
PRKCI (human) = PRKCI (human) (UniProt P41743)
DYRK1B (human) = DYRK1B (human) (UniProt Q9Y463)
TEC (human) = TEC (human) (UniProt P42680)
Chain of TEC (human) (P42680 whole entry, looked up): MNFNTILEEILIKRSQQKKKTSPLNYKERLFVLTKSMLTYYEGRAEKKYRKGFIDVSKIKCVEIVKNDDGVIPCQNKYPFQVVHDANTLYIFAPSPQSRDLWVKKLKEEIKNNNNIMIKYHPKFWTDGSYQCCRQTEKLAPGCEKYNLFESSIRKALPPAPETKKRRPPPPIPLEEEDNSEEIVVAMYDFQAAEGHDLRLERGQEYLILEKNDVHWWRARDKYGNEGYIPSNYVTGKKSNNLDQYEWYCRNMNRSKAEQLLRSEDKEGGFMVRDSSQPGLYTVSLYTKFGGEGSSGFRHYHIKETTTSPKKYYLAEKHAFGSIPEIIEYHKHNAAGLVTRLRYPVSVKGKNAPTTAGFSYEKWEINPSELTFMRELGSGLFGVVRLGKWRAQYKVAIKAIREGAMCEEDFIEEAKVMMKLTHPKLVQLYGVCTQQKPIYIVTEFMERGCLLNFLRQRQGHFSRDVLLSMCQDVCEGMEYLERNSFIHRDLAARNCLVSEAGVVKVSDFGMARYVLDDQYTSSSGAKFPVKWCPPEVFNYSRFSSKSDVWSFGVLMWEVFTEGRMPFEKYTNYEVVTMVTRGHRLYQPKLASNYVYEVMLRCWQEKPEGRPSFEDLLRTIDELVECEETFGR

AURKA (human) = AURKA (human) (UniProt O14965)
DMPK (human) = DMPK (human) (UniProt Q09013)
NEK4 (human) = NEK4 (human) (UniProt P51957)
Chain of NEK4 (human) (P51957 whole entry, looked up): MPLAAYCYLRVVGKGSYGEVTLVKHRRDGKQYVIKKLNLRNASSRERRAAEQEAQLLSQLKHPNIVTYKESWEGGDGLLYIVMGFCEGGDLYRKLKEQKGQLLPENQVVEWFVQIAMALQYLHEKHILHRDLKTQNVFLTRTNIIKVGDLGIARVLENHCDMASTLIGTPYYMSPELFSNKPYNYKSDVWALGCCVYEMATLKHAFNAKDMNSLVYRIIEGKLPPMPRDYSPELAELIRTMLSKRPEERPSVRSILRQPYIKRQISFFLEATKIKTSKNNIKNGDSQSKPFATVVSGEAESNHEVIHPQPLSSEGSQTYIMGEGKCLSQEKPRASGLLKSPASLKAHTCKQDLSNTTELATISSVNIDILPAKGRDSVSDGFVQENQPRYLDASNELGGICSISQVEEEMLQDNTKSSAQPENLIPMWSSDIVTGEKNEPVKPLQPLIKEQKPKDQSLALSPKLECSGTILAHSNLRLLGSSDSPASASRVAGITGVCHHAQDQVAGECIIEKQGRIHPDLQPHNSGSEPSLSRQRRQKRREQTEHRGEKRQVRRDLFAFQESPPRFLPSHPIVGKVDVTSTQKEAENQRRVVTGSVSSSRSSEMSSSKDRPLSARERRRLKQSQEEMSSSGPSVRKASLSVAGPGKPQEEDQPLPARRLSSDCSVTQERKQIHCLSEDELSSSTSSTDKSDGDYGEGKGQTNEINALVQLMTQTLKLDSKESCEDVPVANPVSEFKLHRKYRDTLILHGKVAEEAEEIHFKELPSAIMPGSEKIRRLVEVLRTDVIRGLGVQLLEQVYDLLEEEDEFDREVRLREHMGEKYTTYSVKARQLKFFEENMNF

FGR (human) = FGR (human) (UniProt P09769)
Chain of FGR (human) (P09769 whole entry, looked up): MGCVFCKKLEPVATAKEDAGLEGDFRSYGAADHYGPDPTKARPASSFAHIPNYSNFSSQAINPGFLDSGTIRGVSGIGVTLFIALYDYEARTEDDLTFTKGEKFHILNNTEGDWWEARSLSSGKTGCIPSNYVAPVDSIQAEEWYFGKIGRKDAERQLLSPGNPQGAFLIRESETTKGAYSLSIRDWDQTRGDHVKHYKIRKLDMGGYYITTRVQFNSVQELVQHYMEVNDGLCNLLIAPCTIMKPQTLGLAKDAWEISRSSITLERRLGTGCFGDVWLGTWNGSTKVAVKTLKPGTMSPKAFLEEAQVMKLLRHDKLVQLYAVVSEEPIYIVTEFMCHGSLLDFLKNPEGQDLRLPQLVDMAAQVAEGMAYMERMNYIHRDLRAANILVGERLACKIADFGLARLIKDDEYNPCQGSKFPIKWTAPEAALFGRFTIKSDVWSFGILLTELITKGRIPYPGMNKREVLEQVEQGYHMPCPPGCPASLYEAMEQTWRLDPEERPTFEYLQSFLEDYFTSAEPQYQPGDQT

PRKCB1 (human) = PRKCB1 (human) (UniProt P05771)
STK4 (human) = STK4 (human) (UniProt Q13043)
CDK6 CCND3 (human) = CDK6 CCND3 (human) (UniProt P30281+Q00534)
ROCK1 (human) = ROCK1 (human) (UniProt Q13464)
STK10 (human) = STK10 (human) (UniProt O94804)
Chain of STK10 (human) (O94804 whole entry, looked up): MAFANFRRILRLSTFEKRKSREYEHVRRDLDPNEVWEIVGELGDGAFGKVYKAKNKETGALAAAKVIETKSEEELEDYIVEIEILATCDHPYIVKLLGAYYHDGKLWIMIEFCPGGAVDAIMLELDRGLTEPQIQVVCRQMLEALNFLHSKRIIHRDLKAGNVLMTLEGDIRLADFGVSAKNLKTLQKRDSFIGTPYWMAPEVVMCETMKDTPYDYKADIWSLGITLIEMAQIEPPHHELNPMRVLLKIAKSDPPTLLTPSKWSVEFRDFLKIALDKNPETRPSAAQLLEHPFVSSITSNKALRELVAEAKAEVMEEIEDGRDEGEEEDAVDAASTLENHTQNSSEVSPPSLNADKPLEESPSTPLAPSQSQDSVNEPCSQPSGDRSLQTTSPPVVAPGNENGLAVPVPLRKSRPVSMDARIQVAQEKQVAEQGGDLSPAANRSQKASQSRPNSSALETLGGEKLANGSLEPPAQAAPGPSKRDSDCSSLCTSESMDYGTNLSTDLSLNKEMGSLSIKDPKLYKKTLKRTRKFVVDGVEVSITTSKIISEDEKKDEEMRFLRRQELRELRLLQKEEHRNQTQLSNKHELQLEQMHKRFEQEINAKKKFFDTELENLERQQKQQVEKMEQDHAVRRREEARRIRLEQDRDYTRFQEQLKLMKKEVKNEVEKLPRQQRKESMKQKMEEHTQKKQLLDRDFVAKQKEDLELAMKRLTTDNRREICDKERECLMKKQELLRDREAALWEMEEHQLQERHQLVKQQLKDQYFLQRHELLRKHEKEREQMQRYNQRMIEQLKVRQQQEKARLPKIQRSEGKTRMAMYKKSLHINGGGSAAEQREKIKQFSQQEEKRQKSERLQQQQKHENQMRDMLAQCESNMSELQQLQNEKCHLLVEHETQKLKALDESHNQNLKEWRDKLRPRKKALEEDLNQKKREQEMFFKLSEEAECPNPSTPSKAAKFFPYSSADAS

PRKCD (human) = PRKCD (human) (UniProt Q05655)
CHEK2 (human) = CHEK2 (human) (UniProt O96017)
BMX (human) = BMX (human) (UniProt P51813)
EPHA5 (human) = EPHA5 (human) (UniProt P54756)
NTRK2 (human) = NTRK2 (human) (UniProt Q16620)
MAP4K4 (human) = MAP4K4 (human) (UniProt O95819)
FRK (human) = FRK (human) (UniProt P42685)
CSNK1D (human) = CSNK1D (human) (UniProt P48730)
MAP3K10 (human) = MAP3K10 (human) (UniProt Q02779)
Chain of MAP3K10 (human) (Q02779 whole entry, looked up): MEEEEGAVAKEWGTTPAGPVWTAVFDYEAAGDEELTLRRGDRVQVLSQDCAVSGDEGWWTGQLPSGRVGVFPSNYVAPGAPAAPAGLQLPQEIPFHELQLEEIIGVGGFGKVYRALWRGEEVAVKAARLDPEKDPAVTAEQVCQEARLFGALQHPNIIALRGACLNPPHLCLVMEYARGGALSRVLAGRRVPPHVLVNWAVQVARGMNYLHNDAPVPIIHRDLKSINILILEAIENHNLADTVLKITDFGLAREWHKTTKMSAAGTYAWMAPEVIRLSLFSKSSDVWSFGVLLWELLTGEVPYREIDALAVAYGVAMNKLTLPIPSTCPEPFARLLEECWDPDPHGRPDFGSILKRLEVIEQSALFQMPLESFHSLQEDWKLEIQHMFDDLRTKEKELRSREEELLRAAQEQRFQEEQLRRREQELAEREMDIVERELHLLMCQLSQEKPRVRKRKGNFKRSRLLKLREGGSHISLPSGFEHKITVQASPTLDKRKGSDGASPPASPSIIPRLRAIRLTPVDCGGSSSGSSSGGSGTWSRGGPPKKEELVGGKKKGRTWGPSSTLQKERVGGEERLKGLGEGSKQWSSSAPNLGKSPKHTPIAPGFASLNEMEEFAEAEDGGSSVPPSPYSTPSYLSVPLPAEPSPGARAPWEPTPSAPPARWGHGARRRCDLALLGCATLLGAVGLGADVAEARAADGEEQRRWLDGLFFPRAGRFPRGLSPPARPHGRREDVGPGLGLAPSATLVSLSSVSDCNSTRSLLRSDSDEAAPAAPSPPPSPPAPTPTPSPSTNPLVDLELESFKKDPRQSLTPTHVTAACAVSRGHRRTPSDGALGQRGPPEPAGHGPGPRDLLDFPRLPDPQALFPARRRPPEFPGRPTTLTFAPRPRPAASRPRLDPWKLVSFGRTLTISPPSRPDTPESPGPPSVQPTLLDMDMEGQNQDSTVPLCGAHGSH

FES (human) = FES (human) (UniProt P07332)
HIPK2 (human) = HIPK2 (human) (UniProt Q9H2X6)
FGFR3 (human) = FGFR3 (human) (UniProt P22607)
JAK2 JH1 JH2 (human) = JAK2 JH1 JH2 (human) (UniProt O60674)
WEE1 (human) = WEE1 (human) (UniProt P30291)
Chain of WEE1 (human) (P30291 whole entry, looked up): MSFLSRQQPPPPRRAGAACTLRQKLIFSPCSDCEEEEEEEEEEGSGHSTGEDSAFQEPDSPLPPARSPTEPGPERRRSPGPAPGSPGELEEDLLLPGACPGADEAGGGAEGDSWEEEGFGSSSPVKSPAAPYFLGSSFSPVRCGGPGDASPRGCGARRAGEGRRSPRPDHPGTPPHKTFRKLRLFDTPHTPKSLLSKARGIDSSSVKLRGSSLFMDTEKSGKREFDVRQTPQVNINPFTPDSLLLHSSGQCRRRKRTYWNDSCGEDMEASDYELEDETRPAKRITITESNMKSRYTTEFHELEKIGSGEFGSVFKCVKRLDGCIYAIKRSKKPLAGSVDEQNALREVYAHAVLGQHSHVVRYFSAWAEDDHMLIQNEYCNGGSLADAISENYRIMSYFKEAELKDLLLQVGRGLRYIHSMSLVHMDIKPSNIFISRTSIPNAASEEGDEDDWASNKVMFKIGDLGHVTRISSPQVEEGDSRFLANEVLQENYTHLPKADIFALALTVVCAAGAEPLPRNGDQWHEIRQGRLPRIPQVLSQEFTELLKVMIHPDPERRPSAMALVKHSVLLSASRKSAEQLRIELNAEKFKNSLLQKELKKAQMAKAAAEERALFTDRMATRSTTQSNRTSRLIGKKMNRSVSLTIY

SLK (human) = SLK (human) (UniProt Q9H2G2)

## CCOc1cc2ncnc(Nc3cccc(Br)c3)c2cc1OCC
SGK3 (human)
  residual activity: 96.7%
ERBB2 (human)
  residual activity: 13.8%
CLK2 (human)
  residual activity: 92.6%
GRK6 (human)
  residual activity: 96%
NEK11 (human)
  residual activity: 103%
CSNK2A2 (human)
  residual activity: 93.8%
NEK1 (human)
  residual activity: 99.2%
CSK (human)
  residual activity: 94%
PRKCH (human)
  residual activity: 94.9%
DAPK3 (human)
  residual activity: 103%
BRSK2 (human)
  residual activity: 94%
GSK3B (human)
  residual activity: 96.8%
MERTK (human)
  residual activity: 87.1%
HIPK4 (human)
  residual activity: 89.9%
STK24 (human)
  residual activity: 97.6%
PRKCI (human)
  residual activity: 100%
DYRK1B (human)
  residual activity: 103%
TEC (human)
  residual activity: 120%
AURKA (human)
  residual activity: 110%
DMPK (human)
  residual activity: 102%
NEK4 (human)
  residual activity: 84.8%
FGR (human)
  residual activity: 61.9%
PRKCB1 (human)
  residual activity: 100%
STK4 (human)
  residual activity: 98.5%
CDK6 CCND3 (human)
  residual activity: 104%
ROCK1 (human)
  residual activity: 98.8%
STK10 (human)
  residual activity: 30.5%
PRKCD (human)
  residual activity: 100%
CHEK2 (human)
  residual activity: 92%
BMX (human)
  residual activity: 95.5%
EPHA5 (human)
  residual activity: 69.5%
NTRK2 (human)
  residual activity: 105%
MAP4K4 (human)
  residual activity: 67%
FRK (human)
  residual activity: 85.9%
CSNK1D (human)
  residual activity: 103%
MAP3K10 (human)
  residual activity: 93.2%
FES (human)
  residual activity: 96.8%
HIPK2 (human)
  residual activity: 96.8%
FGFR3 (human)
  residual activity: 103%
JAK2 JH1 JH2 (human)
  residual activity: 99%
WEE1 (human)
  residual activity: 97.9%
SLK (human)
  residual activity: 64.8%
